Counter-ions that a name gives are not always drawn. Like-named read-outs stand apart in the source and are kept apart here.
Experiments:
TBK1 = biological target: T1, TBK1 (Homo sapiens, UniProt Q9UHD2); assay: TBK Biochemical Assay; conditions: read-out: TBK1 IC50
T1 sequence (Q9UHD2 1-729): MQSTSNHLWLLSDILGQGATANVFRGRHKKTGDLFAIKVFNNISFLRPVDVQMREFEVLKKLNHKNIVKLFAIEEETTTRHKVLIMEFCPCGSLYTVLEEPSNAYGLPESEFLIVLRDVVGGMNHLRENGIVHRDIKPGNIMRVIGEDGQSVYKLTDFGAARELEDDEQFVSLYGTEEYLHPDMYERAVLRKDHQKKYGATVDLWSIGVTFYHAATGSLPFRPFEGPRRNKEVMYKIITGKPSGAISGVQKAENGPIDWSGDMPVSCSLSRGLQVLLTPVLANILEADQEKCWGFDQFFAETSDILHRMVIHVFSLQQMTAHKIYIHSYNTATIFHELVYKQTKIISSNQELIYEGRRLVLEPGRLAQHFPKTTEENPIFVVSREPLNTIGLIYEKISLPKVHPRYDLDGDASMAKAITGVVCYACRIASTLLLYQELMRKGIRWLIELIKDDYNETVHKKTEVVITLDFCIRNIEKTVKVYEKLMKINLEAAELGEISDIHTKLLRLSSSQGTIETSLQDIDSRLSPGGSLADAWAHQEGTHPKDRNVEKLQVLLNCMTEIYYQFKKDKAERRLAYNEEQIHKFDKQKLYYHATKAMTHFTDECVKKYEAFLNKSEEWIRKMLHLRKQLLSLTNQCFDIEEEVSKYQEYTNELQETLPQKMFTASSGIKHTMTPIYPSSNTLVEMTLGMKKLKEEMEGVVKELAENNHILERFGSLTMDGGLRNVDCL
Outline: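 Caliper LabChip mobility-shift readout of substrate and product after 90 min of TBK1 reaction at 25° C and stop-buffer addition. Compounds tested in 1:4 serial dilution over 10 points from 30 uM final at 1% DMSO; staurosporine 10 uM final defines full inhibition.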

IKKε = biological target: T2, IKKε (Homo sapiens, UniProt Q14164); assay: IKKe Biochemical Assay; conditions: read-out: IKKε IC50
T2 sequence (Q14164 1-716): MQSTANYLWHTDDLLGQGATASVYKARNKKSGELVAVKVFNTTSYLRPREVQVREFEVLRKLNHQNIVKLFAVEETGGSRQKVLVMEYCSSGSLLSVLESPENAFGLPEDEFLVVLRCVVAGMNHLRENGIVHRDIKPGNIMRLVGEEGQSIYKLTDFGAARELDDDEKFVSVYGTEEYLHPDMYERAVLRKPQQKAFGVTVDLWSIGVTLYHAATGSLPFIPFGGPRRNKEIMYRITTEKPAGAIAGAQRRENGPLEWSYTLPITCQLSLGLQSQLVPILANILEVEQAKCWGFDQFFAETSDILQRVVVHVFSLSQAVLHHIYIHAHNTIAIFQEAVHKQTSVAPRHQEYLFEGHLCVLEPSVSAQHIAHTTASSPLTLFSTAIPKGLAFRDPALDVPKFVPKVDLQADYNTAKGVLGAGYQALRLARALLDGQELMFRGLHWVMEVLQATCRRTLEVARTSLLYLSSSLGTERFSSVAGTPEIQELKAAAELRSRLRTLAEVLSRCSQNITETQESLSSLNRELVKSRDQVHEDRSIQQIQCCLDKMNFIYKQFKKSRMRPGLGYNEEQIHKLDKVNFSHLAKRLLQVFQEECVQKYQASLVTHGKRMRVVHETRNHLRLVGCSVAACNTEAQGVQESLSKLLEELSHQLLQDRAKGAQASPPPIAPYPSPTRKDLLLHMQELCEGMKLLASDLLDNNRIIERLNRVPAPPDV
Outline: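 Activity was measured as mobility-shift separation of phosphorylated from unphosphorylated substrate on a LabChip EZ Reader. Compound was titrated from 30 uM final in 10 points, 1:4 steps, with 1% DMSO, and enzyme plus substrate reacted 90 min at 25° C before stop buffer. Control wells held 10 uM staurosporine.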

[1] = test system: phosphorylation of the IRF-3 protein in MDA-MB-468 cells; assay: pIRF3 immunocytochemistry cell based assay
Outline: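 After 2 h stimulation with Poly(I:C) (10 ug/ml), following 1 h compound pre-treatment (10-point, 3-fold dilution, top 10 uM), MDA-MB-468 cells were fixed and stained with anti-pIRF3 antibody. pIRF3 fluorescence was normalized to PI staining or cell count on an Acumen cytometer. IC50 curves were derived from this.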

[2] = Homo sapiens, MDA-MB-468 cells, Poly(I:C) stimulation, read-out: pIRF3 IC50

Row | Structure (SMILES) | IC50 (TBK1) | IC50 (IKKε) | IC50 [1, 2] | IC50 ([1]; MDA-MB-468 cells, Poly(I:C) stimulation, read-out: pIRF3 IC50) | IC50 ([1]; Homo sapiens, MDA-MB-468, read-out: pIRF3 IC50)
1 | COc1cc(C(=O)N2CC[C@@H](N(C)C)C2)ccc1-c1cc2nccc(-c3ccc(N4CC[C@H](F)C4)c(C#N)c3)c2o1 [Compound 33, 5-{2-[4-((R)-3-Dimethylamino-pyrrolidine-1-carbonyl)-2-methoxy-phenyl]-furo[3,2-b]pyridin-7-yl}-2-((S)-3-fluoro-pyrrolidin-1-yl)-benzonitrile] | < 100 nM | < 100 nM | 100 to 1000 nM | – | –
2 | COc1cc(C(=O)N2CCC(CO)CC2)ccc1-c1cc2nccc(-c3ccc(N4CC[C@H](F)C4)c(C#N)c3)c2o1 [Compound 70, 2-((S)-3-Fluoro-pyrrolidin-1-yl)-5-{2-[4-(4-hydroxymethyl-piperidine-1-carbonyl)-2-methoxy-phenyl]-furo[3,2-b]pyridin-7-yl}-benzonitrile] | < 100 nM | < 100 nM | 100 to 1000 nM | – | –
3 | COc1cc(C(=O)N[C@@]23C[C@@H]2CN(C(C)C)C3)ccc1-c1cc2nccc(-c3ccc(OC4CCOCC4)c(C#N)c3)c2o1 [Compound 372, 4-[7-[3-cyano-4-(oxan-4-yloxy)phenyl]furo[3,2-b]pyridin-2-yl]-3-methoxy-N-[(1S,5R)-3-(propan-2-yl)-3-azabicyclo[3.1.0]hexan-1-yl]benzamide] | < 100 nM | < 100 nM | – | – | 100 to 1000 nM
4 | COc1cc(C(=O)NC2CN3CCC2CC3)ccc1-c1cc2nccc(-c3ccc(N4CCC(F)C4)c(C#N)c3)c2o1 (stereo not drawn) [Compound 87, N-(1-Aza-bicyclo[2.2.2]oct-3-yl)-4-{7-[3-cyano-4-(3-fluoro-pyrrolidin-1-yl)-phenyl]-furo[3,2-b]pyridin-2-yl}-3-methoxy-benzamide] | < 100 nM | < 100 nM | 100 to 1000 nM | – | –
5 | COc1cc(C(=O)N2CC[C@@H](O)C2)ccc1-c1cc2nccc(-c3ccc(OC4CCOCC4)c(C#N)c3)c2o1 [Compound 43, 5-{2-[4-((R)-3-Hydroxy-pyrrolidine-1-carbonyl)-2-methoxy-phenyl]-furo[3,2-b]pyridin-7-yl}-2-(tetrahydro-pyran-4-yloxy)-benzonitrile] | < 100 nM | < 100 nM | 100 to 1000 nM | – | –
6 | COc1cc(C(=O)N2CCC(CO)C2)ccc1-c1cc2nccc(-c3ccc(N4CC[C@H](F)C4)c(C#N)c3)c2o1 (stereo partly drawn) [Compound 76, 2-((S)-3-Fluoro-pyrrolidin-1-yl)-5-{2-[4-(3-hydroxymethyl-pyrrolidine-1-carbonyl)-2-methoxy-phenyl]-furo[3,2-b]pyridin-7-yl}-benzonitrile] | < 100 nM | < 100 nM | 100 to 1000 nM | – | –
7 | N#Cc1cc(-c2ccnc3cc(-c4cccc(C(=O)NC5CN6CCC5CC6)c4)oc23)ccc1OC1CCOCC1 (stereo not drawn) [Compound 143] | < 100 nM | < 100 nM | 100 to 1000 nM | – | –
8 | COc1cc(C(=O)N(C)C)ccc1-c1cc2nccc(-c3ccc(NC4CCOCC4O)c(C#N)c3)c2o1 (stereo not drawn) [Compound 82] | < 100 nM | < 100 nM | 100 to 1000 nM | – | –
9 | COc1cc(C(=O)N2CC3CCC(C2)O3)ccc1-c1cc2nccc(-c3ccc(NC4CCOCC4)c(C#N)c3)c2o1 [Compound 46, 5-{2-[2-Methoxy-4-(8-oxa-3-aza-bicyclo[3.2.1]octane-3-carbonyl)-phenyl]-furo[3,2-b]pyridin-7-yl}-2-(tetrahydro-pyran-4-ylamino)-benzonitrile] | < 100 nM | < 100 nM | 100 to 1000 nM | – | –

The next lines start with results.

Row | IC50 (TBK1) | IC50 (IKKε) | IC50 [1, 2] | IC50 ([1]; MDA-MB-468 cells, Poly(I:C) stimulation, read-out: pIRF3 IC50) | Structure (SMILES) | IC50 ([1]; Homo sapiens, MDA-MB-468, read-out: pIRF3 IC50)
10 | < 100 nM | < 100 nM | – | 100 to 1000 nM | COc1cc(C(=O)NC2C3COCC32)cnc1-c1cc2nccc(-c3ccc(N4CC[C@H](F)C4)c(C#N)c3)c2o1 (stereo partly drawn) [Compound 467, 6-{7-[3-Cyano-4-((S)-3-fluoro-pyrrolidin-1-yl)-phenyl]-furo[3,2-b]pyridin-2-yl}-5-methoxy-N-(3-oxa-bicyclo[3.1.0]hex-6-yl)-nicotinamide] | –
11 | < 100 nM | < 100 nM | 100 to 1000 nM | – | COc1cc(C(=O)NC2CC(CN(C)C)C2)ccc1-c1cc2nccc(-c3ccc(OC4CCOCC4)c(C#N)c3)c2o1 (stereo not drawn) [Compound 344, 4-[7-[3-cyano-4-(oxan-4-yloxy)phenyl]furo[3,2-b]pyridin-2-yl]-N-[3-[(dimethylamino)methyl]cyclobutyl]-3-methoxybenzamide] | –
12 | < 100 nM | < 100 nM | 100 to 1000 nM | – | COc1cc(C(=O)N(C)C)ncc1-c1cc2nccc(-c3ccc(OC4CCNCC4(F)F)c(C#N)c3)c2o1 (stereo not drawn) [Compound 418, 5-(7-[3-cyano-4-[(3,3-difluoropiperidin-4-yl)oxy]phenyl]furo[3,2-b]pyridin-2-yl)-4-methoxy-N,N-dimethylpyridine-2-carboxamide hydrochloride] | –
13 | 100 to 1000 nM | 100 to 1000 nM | 1000 to 5000 nM | – | CN(C)C(=O)c1ccc(-c2cc3nccc(-c4ccc(NC5CCOC6(CC6)C5)c(C#N)c4)c3o2)cc1 (stereo not drawn) [Compound 286, 4-[7-[3-cyano-4-([4-oxaspiro[2.5]octan-7-yl]amino)phenyl]furo[3,2-b]pyridin-2-yl]-N,N-dimethylbenzamide] | –
14 | < 100 nM | < 100 nM | 100 to 1000 nM | – | COc1cc(C(=O)N(C)CCO)cnc1-c1cc2ncc(F)c(-c3ccc(OC4CCOCC4)c(C#N)c3)c2o1 [Compound 334, 6-[7-[3-cyano-4-(oxan-4-yloxy)phenyl]-6-fluorofuro[3,2-b]pyridin-2-yl]-N-(2-hydroxyethyl)-5-methoxy-N-methylpyridine-3-carboxamide] | –
15 | 100 to 1000 nM | 100 to 1000 nM | 100 to 1000 nM | – | COc1cc(C(=O)N(C)C)ncc1-c1cc2nccc(-c3ccc(OC4CCN(C)C4)c(C#N)c3)c2o1 (stereo not drawn) [Compound 430, 5-(7-[3-cyano-4-[(1-methylpyrrolidin-3-yl)oxy]phenyl]furo[3,2-b]pyridin-2-yl)-4-methoxy-N,N-dimethylpyridine-2-carboxamide] | –
16 | 100 to 1000 nM | 100 to 1000 nM | > 5000 nM | – | CN(C)C(=O)c1ccc(-c2cc3nccc(-c4ccc(OC5(C)CCOCC5)c(C#N)c4)c3o2)cc1 [Compound 159, 4-{7-[3-Cyano-4-(4-methyl-tetrahydro-pyran-4-yloxy)-phenyl]-furo[3,2-b]pyridin-2-yl}-N,N-dimethyl-benzamide] | –
17 | < 100 nM | < 100 nM | 100 to 1000 nM | – | COc1cc(C(=O)NC2C3CNCC32)ccc1-c1cc2nccc(-c3ccc(OC4CCOCC4)c(C#N)c3)c2o1 (stereo not drawn) [Compound 84, N-(3-Aza-bicyclo[3.1.0]hex-6-yl)-4-{7-[3-cyano-4-(tetrahydro-pyran-4-yloxy)-phenyl]-furo[3,2-b]pyridin-2-yl}-3-methoxy-benzamide hydrochloride] | –
18 | < 100 nM | < 100 nM | 100 to 1000 nM | – | COc1cc(C(=O)N(C)C)ncc1-c1cc2nccc(-c3ccc(OC4CCNC4)c(C#N)c3)c2o1 (stereo not drawn) [Compound 429, 5-[7-[3-cyano-4-(pyrrolidin-3-yloxy)phenyl]furo[3,2-b]pyridin-2-yl]-4-methoxy-N,N-dimethylpyridine-2-carboxamide] | –

From US10428080B2, “TBK/IKK inhibitor compounds and uses thereof” (Merck Patent GmbH, priority 2015, dated 2019)
